# Test results as given in US20160375006A1, “USES OF PARALOG-SELECTIVE INHIBITORS OF GSK3 KINASES” (priority 2012, published 2016).
# How the values were obtained:
# [1] = target: MAP2K2_Cascade (Homo sapiens, UniProt P36507)
# Procedure: (§1) This was completed utilizing one of two assays depending on the kinase being examined.
# (§2) A solution of IMAP binding reagent (IMAP Screening Express kit; Molecular Devices) (60 μL) was added to each well and incubated for 30 minutes.
# (§3) A solution of termination buffer (QuickScout Screening assist MSA; Carna Biosciences) (60 μL) was added to each well. The entire reaction mixture was then applied to a LabChip3000 system (Caliper Life Science) and the product and substrate peptide peaks were separated and quantified.
# [2] = target: NEK9 (Homo sapiens, UniProt Q8TD19)
# Procedure: as §1, §2, §3
# (§4) The assay utilized was identical to that of the single point inhibitory activity determination (MSA) but run in dose response. […] A solution of termination buffer (QuickScout Screening assist MSA; Carna Biosciences) (60 μL) was added to each well. The entire reaction mixture was then applied to a LabChip3000 system (Caliper Life Science) and the product and substrate peptide peaks were separated and quantified.
# [3] = target: BRSK2 (Homo sapiens, UniProt Q8IWQ3)
# Procedure: as §1, §2, §3, §4
# [4] = target: ALK (Homo sapiens, UniProt Q9UM73)
# Procedure: as §1, §2, §3
# [5] = target: FLT3 (Homo sapiens, UniProt P36888)
# [6] = target: SYK (Homo sapiens, UniProt P43405)
# Procedure: as §1, §2, §3, §4
# [7] = target: PDGFRα(V561D) (Homo sapiens, UniProt P16234, V561D)
# Procedure: as §1, §2, §3, §4
# [8] = target: RET (Homo sapiens, UniProt P07949)
# Procedure: as §1, §2, §3
# [9] = target: KIT(V654A) (Homo sapiens, UniProt P10721, V654A)
# Procedure: as §1, §2, §3, §4
# [10] = target: PKACα (Homo sapiens, UniProt P17612)
# Procedure: as §1, §2, §3, §4
# [11] = target: ARG (Homo sapiens, UniProt P42684)
# Procedure: as §1, §2, §3
# [12] = target: RET(G691S) (Homo sapiens, UniProt P07949, G691S)
# Procedure: as §1, §2, §3
# [13] = target: p38γ (Homo sapiens, UniProt P53778)
# Procedure: as §1, §2, §3
# [14] = target: MARK3 (Homo sapiens, UniProt P27448)
# Procedure: as §1, §2, §3, §4
# [15] = target: BRAF_Cascade (Homo sapiens, UniProt P15056)
# Procedure: as §1, §2, §3, §4
# [16] = target: FLT1 (Homo sapiens, UniProt P17948)
# Procedure: as §1, §2, §3, §4
# [17] = test system: MAP3K4_Cascade
# Source text: as §1
# The assay utilized was identical to that of the single point inhibitory activity determination (MSA) but run in dose response.
# [18] = target: MLK2_Cascade (Homo sapiens, UniProt Q02779)
# Procedure: as §1, §2, §3, §4
# [19] = target: Erk1 (Homo sapiens, UniProt P27361)
# Procedure: as §1, §2, §3
# [20] = target: AurA/TPX2 (Homo sapiens, UniProt O14965)
# Procedure: as §1, §2, §3, §4
# [21] = target: COT_Cascade (Homo sapiens, UniProt P41279)
# Procedure: as §1, §2, §3, §4
# [22] = target: MRCKβ (Homo sapiens, UniProt Q9Y5S2)
# Procedure: as §1, §2, §3, §4
# [23] = target: CHK2 (Homo sapiens, UniProt O96017)
# Procedure: as §1, §2, §3, §4
# [24] = target: SRPK1 (Homo sapiens, UniProt Q96SB4)
# Procedure: as §1, §2, §3, §4
# [25] = target: MGC42105 (Homo sapiens, UniProt Q8IY84)
# Procedure: as §1, §2, §3, §4
# [26] = target: TYRO3 (Homo sapiens, UniProt Q06418)
# Procedure: as §1, §2, §3
# [27] = target: TRKB (Homo sapiens, UniProt Q16620)
# Procedure: as §1, §2, §3, §4
# [28] = target: SGK2 (Homo sapiens, UniProt Q9HBY8)
# Procedure: as §1, §2, §3, §4
# [29] = target: SRPK2 (Homo sapiens, UniProt P78362)
# Procedure: as §2, §3, §4
# [30] = target: AurB (Homo sapiens, UniProt Q96GD4)
# Procedure: as §2, §3, §4
# [31] = target: Erk2 (Homo sapiens, UniProt P28482)
# Procedure: as §1, §2, §3
# [32] = target: CDK4/CycD3 (Homo sapiens, UniProt P11802)
# Procedure: as §1, §2, §3
# [33] = target: FGFR3(K650M) (Homo sapiens, UniProt P22607, K650M)
# Procedure: as §2, §3, §4
# [34] = target: EPHA2 (Homo sapiens, UniProt P29317)
# Procedure: as §1, §2, §3, §4
# [35] = target: FGFR1 (Homo sapiens, UniProt P11362)
# Procedure: as §1, §2, §3, §4
# [36] = target: NDR1 (Homo sapiens, UniProt Q15208)
# Procedure: as §1, §2, §3, §4
# [37] = target: EPHB4 (Homo sapiens, UniProt P54760)
# Procedure: as §1, §2, §3, §4
# [38] = target: YES(T348I) (Homo sapiens, UniProt P07947, T348I)
# Procedure: as §1, §2, §3, §4
# [39] = target: TIE2 (Homo sapiens, UniProt Q02763)
# Procedure: as §1, §2, §3, §4
# [40] = target: PRKX (Homo sapiens, UniProt P51817)
# Procedure: as §1, §2, §3, §4
# [41] = target: MARK2 (Homo sapiens, UniProt Q7KZI7)
# Procedure: as §1, §2, §3, §4
# Sequence of MGC42105 (Q8IY84 whole entry): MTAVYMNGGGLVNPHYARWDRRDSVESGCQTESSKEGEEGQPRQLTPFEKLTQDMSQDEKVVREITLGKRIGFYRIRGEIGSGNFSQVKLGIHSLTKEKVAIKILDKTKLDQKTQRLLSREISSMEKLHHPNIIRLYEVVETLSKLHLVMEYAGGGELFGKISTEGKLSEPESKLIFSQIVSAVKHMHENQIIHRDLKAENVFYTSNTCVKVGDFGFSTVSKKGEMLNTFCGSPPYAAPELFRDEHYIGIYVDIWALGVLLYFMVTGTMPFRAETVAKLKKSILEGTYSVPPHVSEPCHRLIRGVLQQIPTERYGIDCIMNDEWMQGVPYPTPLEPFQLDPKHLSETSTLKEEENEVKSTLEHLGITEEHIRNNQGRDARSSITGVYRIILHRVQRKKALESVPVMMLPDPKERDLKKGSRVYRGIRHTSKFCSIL
# Sequence of FGFR3(K650M) (P22607 23-806 K650M): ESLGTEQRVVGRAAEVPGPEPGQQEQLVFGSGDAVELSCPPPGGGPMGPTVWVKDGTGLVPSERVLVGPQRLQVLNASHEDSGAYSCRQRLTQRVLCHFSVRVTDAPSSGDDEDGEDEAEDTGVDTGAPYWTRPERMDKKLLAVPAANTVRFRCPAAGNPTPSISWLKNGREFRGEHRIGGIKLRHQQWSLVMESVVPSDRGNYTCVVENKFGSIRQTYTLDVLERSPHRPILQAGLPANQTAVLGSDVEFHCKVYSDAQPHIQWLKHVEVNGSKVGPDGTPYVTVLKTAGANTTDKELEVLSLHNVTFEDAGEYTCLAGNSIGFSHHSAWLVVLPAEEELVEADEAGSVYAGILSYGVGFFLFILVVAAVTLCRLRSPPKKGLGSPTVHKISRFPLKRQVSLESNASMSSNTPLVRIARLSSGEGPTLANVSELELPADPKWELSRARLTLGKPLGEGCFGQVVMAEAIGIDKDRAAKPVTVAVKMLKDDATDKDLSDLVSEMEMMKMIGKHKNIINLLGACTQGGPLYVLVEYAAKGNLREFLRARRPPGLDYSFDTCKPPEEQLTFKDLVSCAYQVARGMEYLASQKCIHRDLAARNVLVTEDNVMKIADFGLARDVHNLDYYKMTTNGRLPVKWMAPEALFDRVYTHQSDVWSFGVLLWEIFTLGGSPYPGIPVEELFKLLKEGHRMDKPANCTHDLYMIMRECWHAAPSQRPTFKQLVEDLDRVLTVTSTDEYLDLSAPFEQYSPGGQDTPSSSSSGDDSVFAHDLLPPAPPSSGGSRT
# Sequence of NDR1 (Q15208 whole entry): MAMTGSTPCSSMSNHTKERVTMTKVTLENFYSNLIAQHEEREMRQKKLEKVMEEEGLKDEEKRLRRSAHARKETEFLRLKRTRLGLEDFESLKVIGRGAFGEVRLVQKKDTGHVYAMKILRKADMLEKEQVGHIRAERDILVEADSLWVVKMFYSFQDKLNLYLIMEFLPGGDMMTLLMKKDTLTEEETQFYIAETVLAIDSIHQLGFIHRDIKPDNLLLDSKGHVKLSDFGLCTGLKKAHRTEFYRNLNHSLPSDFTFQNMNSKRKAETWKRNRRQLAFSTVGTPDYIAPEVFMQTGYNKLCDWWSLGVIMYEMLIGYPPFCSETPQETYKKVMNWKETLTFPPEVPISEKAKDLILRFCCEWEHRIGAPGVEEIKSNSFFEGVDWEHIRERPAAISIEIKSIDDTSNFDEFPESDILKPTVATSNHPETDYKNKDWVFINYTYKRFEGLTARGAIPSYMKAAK
# Sequence of TYRO3 (Q06418 41-890): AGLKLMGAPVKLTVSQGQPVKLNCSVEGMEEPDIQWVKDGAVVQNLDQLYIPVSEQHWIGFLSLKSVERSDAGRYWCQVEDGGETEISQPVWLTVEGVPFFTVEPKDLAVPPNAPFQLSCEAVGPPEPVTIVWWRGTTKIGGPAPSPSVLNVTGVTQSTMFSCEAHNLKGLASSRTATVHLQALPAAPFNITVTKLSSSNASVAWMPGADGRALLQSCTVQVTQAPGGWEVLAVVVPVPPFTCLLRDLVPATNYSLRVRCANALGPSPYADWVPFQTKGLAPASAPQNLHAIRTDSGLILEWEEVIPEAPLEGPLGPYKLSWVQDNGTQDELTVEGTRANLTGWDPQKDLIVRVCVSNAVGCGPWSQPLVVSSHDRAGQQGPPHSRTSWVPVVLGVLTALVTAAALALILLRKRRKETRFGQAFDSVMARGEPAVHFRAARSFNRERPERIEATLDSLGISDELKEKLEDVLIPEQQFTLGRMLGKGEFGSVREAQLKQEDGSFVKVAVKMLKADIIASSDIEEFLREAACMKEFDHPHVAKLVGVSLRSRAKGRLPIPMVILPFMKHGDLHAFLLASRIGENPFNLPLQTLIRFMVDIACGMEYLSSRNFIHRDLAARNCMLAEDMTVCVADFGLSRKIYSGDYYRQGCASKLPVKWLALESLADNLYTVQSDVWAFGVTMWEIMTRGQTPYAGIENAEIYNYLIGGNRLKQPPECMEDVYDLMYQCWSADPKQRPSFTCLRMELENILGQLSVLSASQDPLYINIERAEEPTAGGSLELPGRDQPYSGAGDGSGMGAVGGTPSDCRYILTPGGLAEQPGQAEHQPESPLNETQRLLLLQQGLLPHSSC
# Sequence of CDK4/CycD3 (P11802 whole entry): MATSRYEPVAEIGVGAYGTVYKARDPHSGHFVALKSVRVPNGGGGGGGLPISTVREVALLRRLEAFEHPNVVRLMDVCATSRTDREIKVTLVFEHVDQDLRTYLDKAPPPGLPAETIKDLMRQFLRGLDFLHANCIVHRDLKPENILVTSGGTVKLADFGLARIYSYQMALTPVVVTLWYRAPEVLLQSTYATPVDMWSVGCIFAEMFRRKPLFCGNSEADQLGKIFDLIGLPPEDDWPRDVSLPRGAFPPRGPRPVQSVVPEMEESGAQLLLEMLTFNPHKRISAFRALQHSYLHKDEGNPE
# Sequence of CDK4/CycD3 (P30281 whole entry partner): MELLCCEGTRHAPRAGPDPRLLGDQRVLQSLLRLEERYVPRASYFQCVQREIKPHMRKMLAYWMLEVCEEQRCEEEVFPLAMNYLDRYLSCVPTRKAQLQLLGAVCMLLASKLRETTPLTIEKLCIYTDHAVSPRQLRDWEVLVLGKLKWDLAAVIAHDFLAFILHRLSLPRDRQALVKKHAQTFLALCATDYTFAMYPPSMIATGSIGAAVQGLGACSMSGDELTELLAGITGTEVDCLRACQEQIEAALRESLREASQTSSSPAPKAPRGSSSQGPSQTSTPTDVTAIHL
# Sequence of NEK9 (Q8TD19 whole entry): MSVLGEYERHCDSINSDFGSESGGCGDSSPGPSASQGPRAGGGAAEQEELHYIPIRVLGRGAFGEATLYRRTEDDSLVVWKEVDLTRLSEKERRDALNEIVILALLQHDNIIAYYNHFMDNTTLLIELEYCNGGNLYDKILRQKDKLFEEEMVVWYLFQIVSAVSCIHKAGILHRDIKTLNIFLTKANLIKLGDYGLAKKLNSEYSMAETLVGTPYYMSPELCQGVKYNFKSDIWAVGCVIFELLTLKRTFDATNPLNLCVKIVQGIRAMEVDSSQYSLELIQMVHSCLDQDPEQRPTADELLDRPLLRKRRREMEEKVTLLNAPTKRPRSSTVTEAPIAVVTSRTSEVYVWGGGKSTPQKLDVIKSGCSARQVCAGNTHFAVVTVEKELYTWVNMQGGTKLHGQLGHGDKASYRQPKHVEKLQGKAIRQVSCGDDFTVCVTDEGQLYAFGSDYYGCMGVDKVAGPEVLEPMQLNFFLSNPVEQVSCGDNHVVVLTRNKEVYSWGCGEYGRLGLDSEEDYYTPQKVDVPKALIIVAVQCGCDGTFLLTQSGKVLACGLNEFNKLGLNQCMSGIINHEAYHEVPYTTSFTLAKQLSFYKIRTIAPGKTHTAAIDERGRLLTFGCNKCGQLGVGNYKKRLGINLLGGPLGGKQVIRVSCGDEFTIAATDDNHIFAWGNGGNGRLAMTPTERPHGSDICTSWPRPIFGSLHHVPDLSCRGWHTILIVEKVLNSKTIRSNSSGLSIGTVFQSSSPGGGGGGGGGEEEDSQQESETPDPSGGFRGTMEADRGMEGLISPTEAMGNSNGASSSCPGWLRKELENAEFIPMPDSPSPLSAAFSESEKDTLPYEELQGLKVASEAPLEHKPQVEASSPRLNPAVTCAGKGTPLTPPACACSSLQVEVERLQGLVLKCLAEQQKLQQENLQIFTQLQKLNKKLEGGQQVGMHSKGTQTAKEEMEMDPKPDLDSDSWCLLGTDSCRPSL
# Sequence of Erk2 (P28482 whole entry): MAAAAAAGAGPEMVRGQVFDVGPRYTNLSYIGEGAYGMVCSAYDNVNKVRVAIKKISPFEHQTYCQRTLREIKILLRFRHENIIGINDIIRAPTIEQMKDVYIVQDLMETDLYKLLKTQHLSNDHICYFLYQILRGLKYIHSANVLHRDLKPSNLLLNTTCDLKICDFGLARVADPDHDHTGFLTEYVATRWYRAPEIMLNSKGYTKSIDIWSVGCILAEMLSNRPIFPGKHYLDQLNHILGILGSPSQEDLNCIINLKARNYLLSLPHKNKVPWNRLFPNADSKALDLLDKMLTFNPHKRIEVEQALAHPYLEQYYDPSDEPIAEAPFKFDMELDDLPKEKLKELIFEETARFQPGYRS
# Sequence of Erk1 (P27361 whole entry): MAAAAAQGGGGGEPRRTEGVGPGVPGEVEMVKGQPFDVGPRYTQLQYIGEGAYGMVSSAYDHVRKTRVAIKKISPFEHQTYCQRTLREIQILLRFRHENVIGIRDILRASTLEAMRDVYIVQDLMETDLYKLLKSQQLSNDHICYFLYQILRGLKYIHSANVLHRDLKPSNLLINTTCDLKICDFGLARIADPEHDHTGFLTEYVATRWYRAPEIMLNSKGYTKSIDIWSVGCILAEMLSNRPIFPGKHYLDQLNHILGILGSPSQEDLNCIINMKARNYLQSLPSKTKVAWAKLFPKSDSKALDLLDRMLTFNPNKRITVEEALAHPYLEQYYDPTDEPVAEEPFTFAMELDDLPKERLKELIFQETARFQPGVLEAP
smiles,measurement,setting,value
CC[C@@]1(c2ccccc2)C2=C(CC(C)(C)CC2=O)Nc2n[nH]cc21 [BRD0705],% Inhibition at 10 μM,[1],1.3%
same,% Inhibition at 10 μM,[2],3.5%
same,% Inhibition at 10 μM,[3],1.8%
same,% Inhibition at 10 μM,[4],1.1%
same,% Inhibition at 10 μM,[5],25.0%
same,% Inhibition at 10 μM,[6],0.6%
same,% Inhibition at 10 μM,[7],−3.7%
same,% Inhibition at 10 μM,[8],−5.6%
same,% Inhibition at 10 μM,[9],−1.0%
same,% Inhibition at 10 μM,[10],3.4%
same,% Inhibition at 10 μM,[11],1.1%
same,% Inhibition at 10 μM,[12],−5.6%
same,% Inhibition at 10 μM,[13],−3.4%
same,% Inhibition at 10 μM,[14],−5.3%
same,% Inhibition at 10 μM,[15],7.8%
same,% Inhibition at 10 μM,[16],−2.6%
same,% Inhibition at 10 μM,[17],11.6%
same,% Inhibition at 10 μM,[18],2.1%
same,% Inhibition at 10 μM,[19],−9.8%
same,% Inhibition at 10 μM,[20],−5.3%
same,% Inhibition at 10 μM,[21],11.2%
same,% Inhibition at 10 μM,[22],−9.1%
same,% Inhibition at 10 μM,[23],−3.6%
same,% Inhibition at 10 μM,[24],−2.0%
same,% Inhibition at 10 μM,[25],−9.9%
same,% Inhibition at 10 μM,[26],3.8%
same,% Inhibition at 10 μM,[27],4.5%
same,% Inhibition at 10 μM,[28],0.8%
same,% Inhibition at 10 μM,[29],−2.5%
same,% Inhibition at 10 μM,[30],−2.8%
same,% Inhibition at 10 μM,[31],1.6%
same,% Inhibition at 10 μM,[32],−9.1%
same,% Inhibition at 10 μM,[33],−2.7%
same,% Inhibition at 10 μM,[34],−2.6%
same,% Inhibition at 10 μM,[35],−2.7%
same,% Inhibition at 10 μM,[36],−4.8%
same,% Inhibition at 10 μM,[37],14.7%
same,% Inhibition at 10 μM,[38],3.3%
same,% Inhibition at 10 μM,[39],0.3%
same,% Inhibition at 10 μM,[40],−4.7%
same,% Inhibition at 10 μM,[41],−6.2%
CC(C)(C)Cc1[nH]nc2c1[C@](C)(c1ccccc1)C1=C(CC(C)(C)CC1=O)N2 [BRD3731],% Inhibition 10 μM,[1]; 10 μM,−0.4%
same,% Inhibition 10 μM,[2]; 10 μM,2.9%
same,% Inhibition 10 μM,[3]; 10 μM,−2.9%
same,% Inhibition 10 μM,[4]; 10 μM,3.0%
same,% Inhibition 10 μM,[5]; 10 μM,13.8%
same,% Inhibition 10 μM,[6]; 10 μM,−11.0%
same,% Inhibition 10 μM,[7]; 10 μM,6.6%
same,% Inhibition 10 μM,[8]; 10 μM,3.0%
same,% Inhibition 10 μM,[9]; 10 μM,−1.9%
same,% Inhibition 10 μM,[10]; 10 μM,17.1%
same,% Inhibition 10 μM,[11]; 10 μM,6.4%
same,% Inhibition 10 μM,[12]; 10 μM,−2.3%
same,% Inhibition 10 μM,[13]; 10 μM,−2.6%
same,% Inhibition 10 μM,[14]; 10 μM,−2.1%
same,% Inhibition 10 μM,[15]; 10 μM,8.9%
same,% Inhibition 10 μM,[16]; 10 μM,3.2%
same,% Inhibition 10 μM,[17]; 10 μM,12.4%
same,% Inhibition 10 μM,[18]; 10 μM,0.3%
same,% Inhibition 10 μM,[19]; 10 μM,3.4%
same,% Inhibition 10 μM,[20]; 10 μM,3.8%
same,% Inhibition 10 μM,[21]; 10 μM,10.5%
same,% Inhibition 10 μM,[22]; 10 μM,−0.7%
same,% Inhibition 10 μM,[23]; 10 μM,1.5%
same,% Inhibition 10 μM,[24]; 10 μM,5.0%
same,% Inhibition 10 μM,[25]; 10 μM,−2.4%
same,% Inhibition 10 μM,[26]; 10 μM,−3.5%
same,% Inhibition 10 μM,[27]; 10 μM,11.0%
same,% Inhibition 10 μM,[28]; 10 μM,10.4%
same,% Inhibition 10 μM,[29]; 10 μM,6.4%
same,% Inhibition 10 μM,[30]; 10 μM,−2.3%
same,% Inhibition 10 μM,[31]; 10 μM,0.9%
same,% Inhibition 10 μM,[32]; 10 μM,18.1%
same,% Inhibition 10 μM,[33]; 10 μM,0.8%
same,% Inhibition 10 μM,[34]; 10 μM,3.2%
same,% Inhibition 10 μM,[35]; 10 μM,2.3%
same,% Inhibition 10 μM,[36]; 10 μM,−3.7%
same,% Inhibition 10 μM,[37]; 10 μM,1.9%
same,% Inhibition 10 μM,[38]; 10 μM,−2.3%
same,% Inhibition 10 μM,[39]; 10 μM,6.7%
same,% Inhibition 10 μM,[40]; 10 μM,−0.2%
same,% Inhibition 10 μM,[41]; 10 μM,16.5%
